According to patent publication EP4691468A1, “PHARMACEUTICAL COMPOSITION FOR TREATING INFLAMMATORY BOWEL DISEASE” (EA Pharma Co., Ltd., priority 2023, dated 2024):
Values after ≈ are worked out from the molar mass of the structure shown. Values joined by “and” are separate entries in the source; they are usually repeats but may differ in a detail not shown here. Equal entries are not always repeated. Where two headings read alike, the source gives them in different places.

Experiments:
[1] = PK Simulation Analysis 1 by superposition method (Phoenix WinNonlin NPS); set-up: species or system human
From the text: The plasma concentration profile of Compound (2) on day 10 of repeated administration was predicted using the superposition method implemented in the Nonparametric Superposition (NPS) tool of the analysis software Phoenix WinNonlin, applying the single-dose results (Certara L.P.) (Fig. 4). Table 5: Predicted Plasma Concentration (ng/mL) of Compound (2) on Day 10 of Repeated Administration

MAdCAM-1 = experiment: Ex vivo MAdCAM-1 binding inhibition rate (PD) of lymphocytes in collected blood, flow cytometry; assay type: cell-based, human
Description: The MAdCAM-1 binding rate of lymphocytes in plasma was measured using a validated measurement method using the obtained blood samples, and the MAdCAM-1 binding inhibition rate of lymphocytes in plasma was calculated using Excel. Specifically, 5 µL of an 80 mM MnCl2 solution was added to 90 µL of heparinized blood and incubated at room temperature for 10 minutes. A volume of 5 µL of 200 µg/mL recombinant human MAdCAM-1/Fc (R&D Systems) was added to make a total volume of 100 µL, and the mixture was incubated at room temperature for 30 minutes. Subsequently, 1900 µL of BD Phosflow Lyse/Fix Buffer 5X (BD Biosciences) was added, and hemolysis and fixation were performed at 37°C for 10 minutes. After centrifugation for 5 minutes, the supernatant was removed, and 2000 µL of RPMI-1640 medium supplemented with 10% inactivated fetal bovine serum (hereinafter referred to as medium) was added. After centrifugation for 5 minutes, the supernatant was removed and washed. After washing again with the medium, 50 µL of Brilliant Stain Buffer (BD Biosciences), 1.25 µL of MAdCAM-1 FITC (Hycult Biotech), 5 µL of CD4 PE (BD Biosciences), 2.5 µL of CD45RO APC (UCHL1) (BioLegend), 5 µL of CD3 BV421 (SK7) (BioLegend), and 2.5 µL of CD45 BV510 (HI30) (BioLegend) were added, and the mixture was incubated for 30 minutes. After washing with Stain Buffer (BSA) (BD Biosciences), the percentage of MAdCAM-1-positive cells among CD3-positive CD4-positive cells was measured using flow cytometry.
The percentage of MAdCAM-1-positive cells among CD3-positive CD4-positive cells was calculated by subtracting each measured value from the measured value when MAdCAM-1/Fc was not added as a control. […]
The MAdCAM-1 binding inhibition rate (PD) of lymphocytes in plasma was evaluated using collected blood, and the correlation with the plasma concentration (PK) of Compound (2) was plotted (Fig. 5).

[2] = for 24-Hour Post-Dose Trough Values of Compound (2) after Repeated Administration / Average Plasma Concentrations of Compound (2) on Day 10 of Repeated Administration: Compound (1) 400 mg once daily L-SEDDS
Description: A phase 1 clinical trial was conducted to evaluate the safety, tolerability, and pharmacokinetics of Compound (1) when orally administered to healthy adult males.
This clinical trial was a single-center, randomized, double-blind, placebo-controlled, single and multiple ascending dose study with the primary objective of evaluating the safety and tolerability of Compound (1) when orally administered to healthy adult males.
The subjects in each cohort consisted of 8 people, of which 6 were assigned to Compound (1) and 2 were assigned to placebo, and they were administered the drug.
Day 8, when repeated administration was started, corresponds to administration day 1 (Day 1), and day 17 corresponds to administration day 10 (Day 10).
The plasma concentration of Compound (2) was measured using a validated measurement method. Specifically, plasma was separated from collected blood and processed, and then the plasma concentration was measured by an LC/MS/MS apparatus.
For twice-daily administration of C-SEDDS, blood was further collected at 13, 14, 14.5, and 16 hours later to quantify Compound (2).

[3] = plasma concentration, MAdCAM-1-positive cells among CD3-positive CD4-positive cells, ex vivo blood of healthy adult males
[4] = Measured Value, Repeated, Once daily, 400/L-SEDDS, day 10

Cc1cc(=O)n(-c2ccc(C[C@H](NC(=O)c3cc(F)c(NS(=O)(=O)c4ccc(NC(=O)C(C)(C)C)cc4)cc3F)C(=O)O)cn2)c(=O)n1C [Compound (2)]
estimated trough value on the 10th day of repeated administration ([1]; 50 mg, 2.5 times the predicted 20 mg value): 2.03 ng/mL | Judgment Trough Value ([1]; estimated, repeated administration at 50 mg, 10th day): B (IC50 (1.9 ng/mL) or higher and less than IC90 (6.9 ng/mL)) | correlation of MAdCAM-1 binding inhibition rate (PD) with plasma concentration (PK) (MAdCAM-1; collected blood, Fig. 5): correlated | IC50 (concentration that causes 50% binding inhibition) (MAdCAM-1; [3]): 1.9 ng/mL (≈ 2.72 nM) | IC90 (concentration that causes 90% binding inhibition) (MAdCAM-1; [3]): 6.9 ng/mL (≈ 9.88 nM) | 24-Hour Post-Dose Trough Values of Compound (2) after Repeated Administration ([2]; Day 1): 5.092 ng/mL | 24-Hour Post-Dose Trough Values of Compound (2) after Repeated Administration ([2]; Day 2): 10.90 ng/mL | 24-Hour Post-Dose Trough Values of Compound (2) after Repeated Administration ([2]; Day 3): 10.60 ng/mL | 24-Hour Post-Dose Trough Values of Compound (2) after Repeated Administration ([2]; Day 4): 14.21 ng/mL | 24-Hour Post-Dose Trough Values of Compound (2) after Repeated Administration ([2]; Day 5): 19.56 ng/mL | 24-Hour Post-Dose Trough Values of Compound (2) after Repeated Administration ([2]; Day 6): 17.27 ng/mL | 24-Hour Post-Dose Trough Values of Compound (2) after Repeated Administration ([2]; Day 7): 19.85 ng/mL | 24-Hour Post-Dose Trough Values of Compound (2) after Repeated Administration ([2]; Day 8): 22.03 ng/mL | 24-Hour Post-Dose Trough Values of Compound (2) after Repeated Administration ([2]; Day 9): 22.80 ng/mL | 24-Hour Post-Dose Trough Values of Compound (2) after Repeated Administration ([2]; Day 10): 13.04 ng/mL | Average Plasma Concentrations of Compound (2) on Day 10 of Repeated Administration ([2]; Day 10, Time 0.5 h): 23.82 ng/mL | Average Plasma Concentrations of Compound (2) on Day 10 of Repeated Administration ([2]; Day 10, Time 1 h): 43.52 ng/mL | Average Plasma Concentrations of Compound (2) on Day 10 of Repeated Administration ([2]; Day 10, Time 1.5 h): 44.71 ng/mL | Average Plasma Concentrations of Compound (2) on Day 10 of Repeated Administration ([2]; Day 10, Time 2 h): 40.35 ng/mL | Average Plasma Concentrations of Compound (2) on Day 10 of Repeated Administration ([2]; Day 10, Time 2.5 h): 34.19 ng/mL | Average Plasma Concentrations of Compound (2) on Day 10 of Repeated Administration ([2]; Day 10, Time 3 h): 32.09 ng/mL | Average Plasma Concentrations of Compound (2) on Day 10 of Repeated Administration ([2]; Day 10, Time 4 h): 28.31 ng/mL | Average Plasma Concentrations of Compound (2) on Day 10 of Repeated Administration ([2]; Day 10, Time 5 h): 25.14 ng/mL | Average Plasma Concentrations of Compound (2) on Day 10 of Repeated Administration ([2]; Day 10, Time 6 h): 17.77 ng/mL | Average Plasma Concentrations of Compound (2) on Day 10 of Repeated Administration ([2]; Day 10, Time 7 h): 14.77 ng/mL | Average Plasma Concentrations of Compound (2) on Day 10 of Repeated Administration ([2]; Day 10, Time 8 h): 13.57 ng/mL | Average Plasma Concentrations of Compound (2) on Day 10 of Repeated Administration ([2]; Day 10, Time 12 h): 16.86 ng/mL | Average Plasma Concentrations of Compound (2) on Day 10 of Repeated Administration ([2]; Day 10, Time 15 h): 11.33 ng/mL | Average Plasma Concentrations of Compound (2) on Day 10 of Repeated Administration ([2]; Day 10, Time 21 h): 15.69 ng/mL | Average Plasma Concentrations of Compound (2) on Day 10 of Repeated Administration ([2]; Day 10, Time 24 h): 13.04 ng/mL | 24-Hour Post-Dose Trough Values of Compound (2) after Repeated Administration ([2]; Initial Value): 0.000 ng/mL | increase of plasma concentration (trough value) after 24 hours on the 10th day of repeated administration ([2]; L-SEDDS 400 mg once daily, versus single-dose administration): more than threefold | Judgment Trough Value [2, 4]: A (IC90 (6.9 ng/mL) or higher) | Plasma Concentration Trough Value [2, 4]: 13.04 ng/mL and 13.0 ng/mL
